Residues, ends and D or L forms follow the SMILES beside them.
Key:
[1] = system: Human immunodeficiency virus 1; experiment: Binding affinity to HIV1 His-tagged N-terminal heptad repeat of envelope glycoprotein gp41 assessed as recovery of N36-drug complex after 2 hrs by LC-MS analysis; design: concentration or dose not given beside the values
[2] = system: Human immunodeficiency virus 1; experiment: Thermal stability of HIV1 envelope glycoprotein gp41 His-tagged N-terminal heptad repeat N36-drug complex assessed as thermal unfolding transition state by measuring molar ellipticity at 4 to 90 degC by circular dichroic spectra analysis
[3] = system: Human immunodeficiency virus 1; experiment: Antiviral activity against HIV1 NL4-3 harboring gp41 D36G mutant infected in human HeLa cells expressing CD4-LTR-beta-gal assessed as inhibition of viral replication after 48 hrs by MAGI assay; type: functional, organism-based

Structure (SMILES) | Activity [1] [%] | Tm [2] [°C] | EC50 [3] [nM]
CC[C@H](C)[C@H](NC(=O)[C@H](CC(C)C)NC(=O)[C@H](CCC(=O)O)NC(=O)[C@H](CCC(=O)O)NC(=O)[C@@H](NC(=O)[C@H](CCCCN)NC(=O)[C@H](CCCCN)NC(=O)[C@@H](NC(=O)[C@H](Cc1ccc(O)cc1)NC(=O)[C@H](CCC(=O)O)NC(=O)[C@H](CCC(=O)O)NC(=O)[C@@H](NC(=O)[C@H](CCCCN)NC(=O)[C@H](CCCCN)NC(=O)[C@H](CC(=O)O)NC(=O)[C@H](Cc1c[nH]c2ccccc12)NC(=O)[C@H](CCC(=O)O)NC(=O)[C@H](CCC(=O)O)NC(=O)[C@H](Cc1c[nH]c2ccccc12)NC(C)=O)[C@@H](C)CC)[C@@H](C)O)[C@@H](C)CC)C(=O)N[C@@H](CCCCN)C(=O)N[C@@H](CCCCN)C(=O)N[C@@H](CO)C(=O)N[C@@H](CCC(=O)O)C(=O)N[C@@H](CCC(=O)O)C(=O)N[C@@H](C)C(=O)N[C@@H](CCC(N)=O)C(=O)N[C@@H](CCCCN)C(=O)N[C@@H](CCCCN)C(=O)N[C@@H](CC(N)=O)C(=O)N[C@@H](CCC(=O)O)C(=O)N[C@@H](CCC(=O)O)C(=O)N[C@@H](CCC(=O)O)C(=O)N[C@@H](CC(C)C)C(=O)N[C@@H](CCCCN)C(=O)N[C@@H](CCCCN)C(N)=O (Ac-WEEWDKKIEEYTKKIEELIKKSEEAQKKNEEELKK-NH2) | 6.6 | 76.1 | 1.6
CC[C@H](C)[C@H](NC(=O)[C@H](CC(C)C)NC(=O)[C@H](CCC(=O)O)NC(=O)[C@H](CCC(=O)O)NC(=O)[C@@H](NC(=O)[C@H](CCCCN)NC(=O)[C@H](CCCCN)NC(=O)[C@@H](NC(=O)[C@H](Cc1ccc(O)cc1)NC(=O)[C@H](CCC(=O)O)NC(=O)[C@H](CCC(=O)O)NC(=O)[C@@H](NC(=O)[C@H](CCCCN)NC(=O)[C@H](CCCCN)NC(=O)[C@H](CC(=O)O)NC(=O)[C@H](Cc1c[nH]c2ccccc12)NC(=O)[C@H](CCC(=O)O)NC(=O)[C@H](CCC(=O)O)NC(=O)[C@H](Cc1c[nH]c2ccccc12)NC(C)=O)[C@@H](C)CC)[C@@H](C)O)[C@@H](C)CC)C(=O)N[C@@H](CCCCN)C(=O)N[C@@H](CCCCN)C(=O)N[C@@H](CO)C(=O)N[C@@H](CCC(=O)O)C(=O)N[C@@H](CCC(=O)O)C(=O)N[C@@H](CCCNC(=N)N)C(=O)N[C@@H](CCC(N)=O)C(=O)N[C@@H](CCCCN)C(=O)N[C@@H](CCCCN)C(=O)N[C@@H](CC(N)=O)C(=O)N[C@@H](CCC(=O)O)C(=O)N[C@@H](CCC(=O)O)C(=O)N[C@@H](CCC(=O)O)C(=O)N[C@@H](CC(C)C)C(=O)N[C@@H](CCCCN)C(=O)N[C@@H](CCCCN)C(N)=O (Ac-WEEWDKKIEEYTKKIEELIKKSEERQKKNEEELKK-NH2) | 7.6 | 71.5 | 2.5
CC[C@H](C)[C@H](NC(=O)[C@H](CC(C)C)NC(=O)[C@H](CCC(=O)O)NC(=O)[C@H](CCC(=O)O)NC(=O)[C@@H](NC(=O)[C@H](CCCCN)NC(=O)[C@H](CCCCN)NC(=O)[C@@H](NC(=O)[C@H](Cc1ccc(O)cc1)NC(=O)[C@H](CCC(=O)O)NC(=O)[C@H](CCC(=O)O)NC(=O)[C@@H](NC(=O)[C@H](CCCCN)NC(=O)[C@H](CCCCN)NC(=O)[C@H](CC(=O)O)NC(=O)[C@H](Cc1c[nH]c2ccccc12)NC(=O)[C@H](CCC(=O)O)NC(=O)[C@H](CCC(=O)O)NC(=O)[C@H](Cc1c[nH]c2ccccc12)NC(C)=O)[C@@H](C)CC)[C@@H](C)O)[C@@H](C)CC)C(=O)N[C@@H](CCCCN)C(=O)N[C@@H](CCCCN)C(=O)N[C@@H](CO)C(=O)N[C@@H](CCC(=O)O)C(=O)N[C@@H](CCC(=O)O)C(=O)N[C@@H](CCC(=O)O)C(=O)N[C@@H](CCC(N)=O)C(=O)N[C@@H](CCCCN)C(=O)N[C@@H](CCCCN)C(=O)N[C@@H](CC(N)=O)C(=O)N[C@@H](CCC(=O)O)C(=O)N[C@@H](CCC(=O)O)C(=O)N[C@@H](CCC(=O)O)C(=O)N[C@@H](CC(C)C)C(=O)N[C@@H](CCCCN)C(=O)N[C@@H](CCCCN)C(N)=O (Ac-WEEWDKKIEEYTKKIEELIKKSEEEQKKNEEELKK-NH2) | 4.3 | 76.2 | 2.4
CC[C@H](C)[C@H](NC(=O)[C@H](CC(C)C)NC(=O)[C@H](CCC(=O)O)NC(=O)[C@H](CCC(=O)O)NC(=O)[C@@H](NC(=O)[C@H](CCCCN)NC(=O)[C@H](CCCCN)NC(=O)[C@@H](NC(=O)[C@H](Cc1ccc(O)cc1)NC(=O)[C@H](CCC(=O)O)NC(=O)[C@H](CCC(=O)O)NC(=O)[C@@H](NC(=O)[C@H](CCCCN)NC(=O)[C@H](CCCCN)NC(=O)[C@H](CC(=O)O)NC(=O)[C@H](Cc1c[nH]c2ccccc12)NC(=O)[C@H](CCC(=O)O)NC(=O)[C@H](CCC(=O)O)NC(=O)[C@H](Cc1c[nH]c2ccccc12)NC(C)=O)[C@@H](C)CC)[C@@H](C)O)[C@@H](C)CC)C(=O)N[C@@H](CCCCN)C(=O)N[C@@H](CCCCN)C(=O)N[C@@H](CO)C(=O)N[C@@H](CCC(=O)O)C(=O)N[C@@H](CCC(=O)O)C(=O)NCC(=O)N[C@@H](CCC(N)=O)C(=O)N[C@@H](CCCCN)C(=O)N[C@@H](CCCCN)C(=O)N[C@@H](CC(N)=O)C(=O)N[C@@H](CCC(=O)O)C(=O)N[C@@H](CCC(=O)O)C(=O)N[C@@H](CCC(=O)O)C(=O)N[C@@H](CC(C)C)C(=O)N[C@@H](CCCCN)C(=O)N[C@@H](CCCCN)C(N)=O (Ac-WEEWDKKIEEYTKKIEELIKKSEEGQKKNEEELKK-NH2) | 3.8 | 71 | 2.3
CC[C@H](C)[C@H](NC(=O)[C@H](CC(C)C)NC(=O)[C@H](CCC(=O)O)NC(=O)[C@H](CCC(=O)O)NC(=O)[C@@H](NC(=O)[C@H](CCCCN)NC(=O)[C@H](CCCCN)NC(=O)[C@@H](NC(=O)[C@H](Cc1ccc(O)cc1)NC(=O)[C@H](CCC(=O)O)NC(=O)[C@H](CCC(=O)O)NC(=O)[C@@H](NC(=O)[C@H](CCCCN)NC(=O)[C@H](CCCCN)NC(=O)[C@H](CC(=O)O)NC(=O)[C@H](Cc1c[nH]c2ccccc12)NC(=O)[C@H](CCC(=O)O)NC(=O)[C@H](CCC(=O)O)NC(=O)[C@H](Cc1c[nH]c2ccccc12)NC(C)=O)[C@@H](C)CC)[C@@H](C)O)[C@@H](C)CC)C(=O)N[C@@H](CCCCN)C(=O)N[C@@H](CCCCN)C(=O)N[C@@H](CO)C(=O)N[C@@H](CCC(=O)O)C(=O)N[C@@H](CCC(=O)O)C(=O)N[C@@H](Cc1cnc[nH]1)C(=O)N[C@@H](CCC(N)=O)C(=O)N[C@@H](CCCCN)C(=O)N[C@@H](CCCCN)C(=O)N[C@@H](CC(N)=O)C(=O)N[C@@H](CCC(=O)O)C(=O)N[C@@H](CCC(=O)O)C(=O)N[C@@H](CCC(=O)O)C(=O)N[C@@H](CC(C)C)C(=O)N[C@@H](CCCCN)C(=O)N[C@@H](CCCCN)C(N)=O (Ac-WEEWDKKIEEYTKKIEELIKKSEEHQKKNEEELKK-NH2) | 4.3 | 72.6 | 2
CC[C@H](C)[C@H](NC(=O)[C@H](CC(C)C)NC(=O)[C@H](CCC(=O)O)NC(=O)[C@H](CCC(=O)O)NC(=O)[C@@H](NC(=O)[C@H](CCCCN)NC(=O)[C@H](CCCCN)NC(=O)[C@@H](NC(=O)[C@H](Cc1ccc(O)cc1)NC(=O)[C@H](CCC(=O)O)NC(=O)[C@H](CCC(=O)O)NC(=O)[C@@H](NC(=O)[C@H](CCCCN)NC(=O)[C@H](CCCCN)NC(=O)[C@H](CC(=O)O)NC(=O)[C@H](Cc1c[nH]c2ccccc12)NC(=O)[C@H](CCC(=O)O)NC(=O)[C@H](CCC(=O)O)NC(=O)[C@H](Cc1c[nH]c2ccccc12)NC(C)=O)[C@@H](C)CC)[C@@H](C)O)[C@@H](C)CC)C(=O)N[C@@H](CCCCN)C(=O)N[C@@H](CCCCN)C(=O)N[C@@H](CO)C(=O)N[C@@H](CCC(=O)O)C(=O)N[C@@H](CCC(=O)O)C(=O)N[C@@H](CC(C)C)C(=O)N[C@@H](CCC(N)=O)C(=O)N[C@@H](CCCCN)C(=O)N[C@@H](CCCCN)C(=O)N[C@@H](CC(N)=O)C(=O)N[C@@H](CCC(=O)O)C(=O)N[C@@H](CCC(=O)O)C(=O)N[C@@H](CCC(=O)O)C(=O)N[C@@H](CC(C)C)C(=O)N[C@@H](CCCCN)C(=O)N[C@@H](CCCCN)C(N)=O (Ac-WEEWDKKIEEYTKKIEELIKKSEELQKKNEEELKK-NH2) | 8.2 | 83.8 | 2.7
CC[C@H](C)[C@H](NC(=O)[C@H](CC(C)C)NC(=O)[C@H](CCC(=O)O)NC(=O)[C@H](CCC(=O)O)NC(=O)[C@@H](NC(=O)[C@H](CCCCN)NC(=O)[C@H](CCCCN)NC(=O)[C@@H](NC(=O)[C@H](Cc1ccc(O)cc1)NC(=O)[C@H](CCC(=O)O)NC(=O)[C@H](CCC(=O)O)NC(=O)[C@@H](NC(=O)[C@H](CCCCN)NC(=O)[C@H](CCCCN)NC(=O)[C@H](CC(=O)O)NC(=O)[C@H](Cc1c[nH]c2ccccc12)NC(=O)[C@H](CCC(=O)O)NC(=O)[C@H](CCC(=O)O)NC(=O)[C@H](Cc1c[nH]c2ccccc12)NC(C)=O)[C@@H](C)CC)[C@@H](C)O)[C@@H](C)CC)C(=O)N[C@@H](CCCCN)C(=O)N[C@@H](CCCCN)C(=O)N[C@@H](CO)C(=O)N[C@@H](CCC(=O)O)C(=O)N[C@@H](CCC(=O)O)C(=O)N[C@@H](CCCCN)C(=O)N[C@@H](CCC(N)=O)C(=O)N[C@@H](CCCCN)C(=O)N[C@@H](CCCCN)C(=O)N[C@@H](CC(N)=O)C(=O)N[C@@H](CCC(=O)O)C(=O)N[C@@H](CCC(=O)O)C(=O)N[C@@H](CCC(=O)O)C(=O)N[C@@H](CC(C)C)C(=O)N[C@@H](CCCCN)C(=O)N[C@@H](CCCCN)C(N)=O (Ac-WEEWDKKIEEYTKKIEELIKKSEEKQKKNEEELKK-NH2) | 4.8 | 69.2 | 2.7

From ChEMBL document CHEMBL3390848, “Affinity selection and sequence-activity relationships of HIV-1 membrane fusion inhibitors directed at the drug-resistant variants” (Medchemcomm, 2010)
